This is an account of results in ChEMBL document CHEMBL1129429, “Structure-activity relationships for the binding of arylpiperazines and arylbiguanides at 5-HT3 serotonin receptors” (J Med Chem, 1996).

Assay [1] deals with Serotonin 3 (5-HT3) receptor. Nature of the assay: Compound was tested for the inhibition of [3H]GR-65630 binding to 5-hydroxytryptamine 3 receptor expressed in NG 108-15 cells. The class given is cell-based.
The species entered for another assay is Oryctolagus cuniculus. Nature of the assay: Minimal effective dose for its 5-HT3 -Stimulant potency in rabbit bladder preparation. The class given is functional.
The species named for assay [2] is Rattus norvegicus. Nature of the assay: Compound tested for its 5-HT3 -Stimulant potency in rat relative to compound 6 ( Value = 1). The class given is functional.
The species entered for assay [3] is Rattus norvegicus. The assay is described as follows: Compound tested for its 5-HT3 -Stimulant potency in rat relative to compound 6 ( Value = 1); Range 0.5-1.3. The class given is functional.
The species named for assay [4] is Rattus norvegicus. The assay is described as follows: Compound tested for its 5-HT3 -Stimulant potency in rat relative to compound 6 ( Value = 1); range 0.3-0.6. The class given is functional.

Consider `NCCc1cccc(Cl)c1`, for which, in assay [1] (read-out: Ki), the Ki is more than 10000 nM. Still for that read-out and setting: the value for `C[N+]1(C)CCN(c2cccc(Cl)c2)CC1` was 1450 nM; that for `COc1ccc(N2CCNCC2)c(OC)c1` was more than 10000 nM. Consider `Clc1cccc(CC2=NCCN2)c1`, for which, in assay [1] (read-out: Ki), the inhibition constant Ki is more than 10000 nM. The same measure, in the same setting: the value for `c1ccc(C2CCNCC2)cc1` was more than 10000 nM. For the compound `c1ccc2cc(N3CCNCC3)ccc2c1`, the inhibition constant (Ki) in assay [1] (read-out: Ki) came to 32 nM. In the assay listed under Oryctolagus cuniculus, the Min effective dose was 0.03 mg/kg. In addition, the Relative potency in the assay filed under Rattus norvegicus [2] is listed as less than 0.02. On to `Cc1cccc(N2CCN(C)CC2)n1`, for which, in assay [1] (read-out: Ki), the Ki was 560 nM. Turning to `NC(N)=Nc1cccc(Cl)c1`, the inhibitory constant (Ki) in assay [1] (read-out: Ki) stood at 35 nM. The compound further came in with a Min effective dose in the assay filed under Oryctolagus cuniculus of 0.15 mg/kg. Besides, the Relative potency in the assay listed under Rattus norvegicus [3] turned out to be 0.74. As to `c1ccc2c(N3CCNCC3)cccc2c1`, the inhibition constant (Ki) in assay [1] (read-out: Ki) came out at 175 nM. The same measure, in the same setting: under `N=C(N)Cc1cccc(Cl)c1` stands 1200 nM; under `COc1ccc(Cl)cc1N1CCNCC1`, 40 nM. On the same count and under the same terms, the value for `C[N+]1(C)CCN(c2cccc(C(F)(F)F)c2)CC1` was more than 10000 nM. Same read-out and setting: the value for `COc1ccc(N2CCNCC2)cc1` was 1640 nM; that for `Cc1cccc(NC(N)=NC(=N)N)c1` was 780 nM.

For the compound `N=C(N)NC(=O)Nc1cccc(Cl)c1`, the Ki in assay [1] (read-out: Ki) is 1250 nM. The same measure, in the same setting: the value for `N=C(N)/N=C(\N)Nc1cccc([N+](=O)[O-])c1` was 220 nM. For `NC(N)=Nc1ccc2ccccc2c1`, the inhibition constant (Ki) in assay [1] (read-out: Ki) stood at 25 nM. The compound also showed a Min effective dose in the assay listed under Oryctolagus cuniculus of 0.015 mg/kg. In the assay listed under Rattus norvegicus [2], this compound had a Relative potency of 1. On to `NCCC(=O)Nc1cccc(Cl)c1`, for which the Ki in assay [1] (read-out: Ki) was more than 10000 nM. Same read-out and setting: under `c1ccc(N2CCNCC2)cc1` [PHENYLPIPERAZINE] stands 3000 nM; under `CN(C)CCc1cccc(Cl)c1`, more than 10000 nM; under `NC(N)=Nc1ccccc1Cl`, 190 nM.

Take `NC(=O)Nc1cccc(Cl)c1`: the Ki in assay [1] (read-out: Ki) was more than 10000 nM.

Regarding `CN(C)C(=N)N=C(N)Nc1cccc(Cl)c1`, the Ki in assay [1] (read-out: Ki) was more than 10000 nM. Turning to `NCCCNc1cccc(Cl)c1`, the Ki in assay [1] (read-out: Ki) was more than 10000 nM. On the same count and under the same terms, the value for `N=C(N)NCCc1ccc(Cl)cc1` was 243 nM; that for `Cc1ccc(NC(=N)N=C(N)N)cc1` was more than 10000 nM.

Consider `N=C(N)NC(=N)Nc1cccc(Cl)c1`, for which the inhibition constant Ki in assay [1] (read-out: Ki) worked out at 17 nM. The same compound displayed a Min effective dose in the assay listed under Oryctolagus cuniculus of 0.0066 mg/kg. This compound also had a Relative potency in the assay listed under Rattus norvegicus [2] of 1.

As to `N=C(N)NCCc1cccc(Cl)c1`, the inhibitory constant (Ki) in assay [1] (read-out: Ki) is 40 nM. The same measure, in the same setting: the value for `Clc1cccc(N2CCNCC2)n1` was 15 nM; that for `COc1ccccc1N1CCNCC1` was 2500 nM. With `Cc1ccc(NC(N)=NC(=N)N)cc1Cl`, the Ki in assay [1] (read-out: Ki) came out at 225 nM.

For the compound `N=C(N)NC(=N)Nc1ccc2ccccc2c1`, the inhibition constant Ki in assay [1] (read-out: Ki) was determined as 12 nM. The same compound registered a Min effective dose in the assay filed under Oryctolagus cuniculus of 0.01 mg/kg. This compound also returned a Relative potency in the assay filed under Rattus norvegicus [2] of 0.5.

As for `N=C(N)NC(=N)Nc1ccccc1` [PHENYL BIGUANIDE], the Ki in assay [1] (read-out: Ki) was 1200 nM. The compound also registered a Min effective dose in the assay filed under Oryctolagus cuniculus of 0.01 mg/kg. The Relative potency in the assay listed under Rattus norvegicus [4] is given as 0.45. `NC(N)=Nc1cccc(C(F)(F)F)c1`: the Ki in assay [1] (read-out: Ki) turned out to be 5700 nM. Take `N=C(N)NCCc1ccccc1Cl`: the inhibitory constant (Ki) in assay [1] (read-out: Ki) came out at 150 nM. Consider `CN1CCN(c2ccc3ccccc3n2)CC1`, for which the affinity in assay [1], expressed as Ki, was 3 nM. In the case of `N=C(N)NC(=N)Nc1ccc(Cl)cc1` [4-CHLOROPHENYLBIGUANIDE], in assay [1] (read-out: Ki), the Ki amounted to 200 nM. Still for that read-out and setting: under `N=C(N)Nc1ccccn1` stands more than 10000 nM. The same measure, in the same setting: under `NC=Nc1cccc(Cl)c1` stands more than 10000 nM; under `N=C(N)Nc1ccc(Cl)cc1`, 320 nM; under `COc1ccc(Cl)cc1/N=C(\N)N=C(N)N`, 126 nM. With `Clc1ccc(N2CCNCC2)cc1`, the inhibition constant Ki in assay [1] (read-out: Ki) was 2160 nM. For the compound `NCCCCc1cccc(Cl)c1`, the Ki in assay [1] (read-out: Ki) is more than 10000 nM. Still for that read-out and setting: under `NCCCc1cccc(Cl)c1` stands more than 10000 nM.

`FC(F)(F)c1cccc(N2CCNCC2)c1`: the Ki in assay [1] (read-out: Ki) turned out to be 1390 nM. The same measure, in the same setting: the value for `NCCNC(=O)c1cccc(Cl)c1` was more than 10000 nM; that for `COc1cccc(NC(=N)N)c1` was 1600 nM; that for `c1ccc2nc(N3CCCCC3)ccc2c1` was more than 10000 nM. Still for that read-out and setting: under `COc1ccccc1C1(O)CCNCC1` stands more than 10000 nM. The same measure, in the same setting: under `N=C(N)NCc1cccc(Cl)c1` stands 1200 nM. Consider `Clc1cccc(N2CCNCC2)c1` [CHLOROPHENYLPIPERAZINE], for which the Ki in assay [1] (read-out: Ki) is 62 nM. This compound yielded a Relative potency in the assay listed under Rattus norvegicus [2] of less than 0.02. As for `COc1ccc(N2CCNCC2)c(C)c1`, the inhibitory constant (Ki) in assay [1] (read-out: Ki) stood at 660 nM.

Consider `N=C(N)Nc1cccnc1` [PYRAXININE], for which, in assay [1] (read-out: Ki), the Ki worked out at 2910 nM. Turning to `CNCCc1cccc(Cl)c1`, the Ki in assay [1] (read-out: Ki) is more than 10000 nM.

On to `N=C(N)Nc1ccccc1` [PHENYLGUANIDINE], for which the inhibition constant Ki in assay [1] (read-out: Ki) turned out to be 2340 nM. The same measure, in the same setting: under `Cc1cccc(NC(=N)N)c1` stands 6520 nM; under `N=C(N)NC(=N)Nc1ccccc1Cl`, 62 nM.

A word on the Ki: it is a measure of affinity in units of concentration, obtained from inhibition or displacement.
